According to patent US9695155B2, “Herbicidal substituted pyrimidinyloxy benzene compounds” (E. I. DU PONT DE NEMOURS AND COMPANY, priority 2013, dated 2017):

Columns and labels:
large (Lg) crabgrass [1] = experiment: Test A postemergence; format: in vivo, Digitaria sanguinalis
Summary of the method: (§1)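 Scoring: eye-based comparison with untreated controls, 0 for no effect through 100 for complete control, at about day 10. Treatments: directed soil spray preemergence; foliar spray postemergence on 2–10 cm plants at the one- to two-leaf stage. Medium: loam soil with sand.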

corn [2] = experiment: Test A preemergence; format: in vivo, Zea mays
Summary of the method: as §1

lambsquarters = experiment: Test C postemergence; format: in vivo, Chenopodium album; settings: Chenopodium album, post-emergence
Description: (§2) Seeds of plant species selected from blackgrass (Alopecurus myosuroides), Italian ryegrass (Lolium multiflorum), wheat, winter (winter wheat, Triticum aestivum), galium (catchweed bedstraw, Galium aparine), corn (Zea mays), large (Lg) crabgrass (Digitaria sanguinalis), giant foxtail (Setaria faberii), johnsongrass (Sorghum halepense), lambsquarters (Chenopodium album), morningglory (Ipomoea coccinea), yellow nutsedge (Cyperus esculentus), pigweed (Amaranthus retroflexus), ragweed (common ragweed, Ambrosia elatior), soybean (Glycine max), barnyardgrass (Echinochloa crus-galli), oilseed rape (Brassica napus), waterhemp (common waterhemp, Amaranthus rudis), kochia (Kochia scoparia), wild oat (Avena fatua), surinam grass (Brachiaria decumbens), foxtail, green (green foxtail, Setaria viridis), goosegrass (Eleusine indica), bromegrass, downy (downy bromegrass, Bromus tectorum), nightshade (eastern black nightshade, Solanum ptycanthum), cocklebur (common cocklebur, Xanthium strumarium), cupgrass, woolly (woolly cupgrass, Eriochloa villosa), bermudagrass (Cynodon dactylon), sunflower, (common oilseed sunflower, Helianthus annuus), Russian thistle (Salsola kali), and velvetleaf (Abutilon theophrasti) were planted into a blend of loam soil and sand and treated preemergence with test chemicals formulated in a non-phytotoxic solvent mixture which included a surfactant.
(§3) At the same time, plants selected from these crop and weed species and also barley, winter (winter barley, Hordeum vulgare), windgrass (Apera spica-venti), chickweed (common chickweed, Stellaria media), deadnettle (henbit deadnettle, Lamium amplexicaule), and canarygrass (littleseed canarygrass, Phalaris minor) were planted in pots containing Redi-Earth® planting medium (Scotts Company, 14111 Scottslawn Road, Marysville, Ohio 43041) comprising spaghnum peat moss, vermiculite, wetting agent and starter nutrients and treated with postemergence applications of test chemicals formulated in the same manner. Plants ranged in height from 2 to 18 cm (1- to 4-leaf stage) for postemergence treatments. Treated plants and controls were maintained in a greenhouse for 13 to 15 days, after which time all species were compared to controls and visually evaluated. Plant response ratings, summarized in Table C, are based on a scale of 0 to 100 where 0 is no effect and 100 is complete control. A dash (-) response means no test result.

sedge, umbrella = experiment: Test B flooded paddy test; format: in vivo, Cyperus difformis; settings: Flood, 250 g ai/ha, 0 to 100 scale where 0 is no effect and 100 is complete control
Summary of the method: (§4)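 Greenhouse flooded-pot test: compounds dosed into 3 cm standing water over 2-leaf plants, flood held constant. Rated visually after 13–15 days on 0–100 (complete control = 100); a dash marks no test result.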

giant foxtail = experiment: Test C postemergence; format: in vivo, Setaria faberii; settings: Setaria faberi, post-emergence
Description: as §2, §3

wheat, winter = experiment: Test C postemergence; format: in vivo, Triticum aestivum; settings: Triticum aestivum, post-emergence
Description: as §2, §3

large (Lg) crabgrass [3] = experiment: Test C postemergence; format: in vivo, Digitaria sanguinalis; settings: Digitaria sanguinalis, post-emergence
Description: as §2, §3

barnyardgrass = experiment: Test B flooded paddy test; format: in vivo, Echinochloa crus-galli; settings: Flood, 250 g ai/ha, 0 to 100 scale where 0 is no effect and 100 is complete control
Summary of the method: as §4

wheat = experiment: Test A preemergence; format: in vivo, Triticum aestivum
Summary of the method: as §1

corn [4] = experiment: Test C postemergence; format: in vivo, Zea mays; settings: Zea mays, post-emergence
Description: as §2, §3

chickweed = experiment: Test C postemergence; format: in vivo, Stellaria media; settings: Stellaria media, post-emergence
Description: as §2, §3

large (Lg) crabgrass [5] = experiment: Test C preemergence; format: in vivo, Digitaria sanguinalis; settings: for Crabgrass, Large plant response rating: preemergence; for Plant response rating, Crabgrass, Large: Preemergence, 31 g ai/ha, scale 0 to 100, 0 no effect, 100 complete control
Description: as §2, §3

pigweed = experiment: Test C preemergence; format: in vivo, Amaranthus retroflexus; settings: for Pigweed plant response rating: preemergence
Description: as §2, §3

[6] = 125 g ai/ha, 0 to 100 scale where 0 is no effect and 100 is complete control
[7] = 500 g ai/ha, 0 to 100 scale where 0 is no effect and 100 is complete control
[8] = 16 g ai/ha, scale 0 to 100 (0 no effect, 100 complete control)
[9] = 62 g ai/ha, scale 0 (no effect) to 100 (complete control)
[10] = 125 g ai/ha, scale 0 (no effect) to 100 (complete control)

Structure (SMILES): Fc1cnc(Oc2ccccc2-n2cc(Br)cn2)nc1 [Compound 10, 2-[2-(4-bromo-1H-pyrazol-1-yl)phenoxy]-5-fluoropyrimidine]
- pest or weed control at 125 g/ha (large (Lg) crabgrass [1]; Digitaria sanguinalis, post-emergence, 240 h, 125 g ai/ha, 0 to 100 scale where 0 is no effect and 100 is complete control, read-out: Plant response rating, Crabgrass, Large): 50%
- pest or weed control at 500 g/ha (large (Lg) crabgrass [1]; Digitaria sanguinalis, post-emergence, 240 h, 500 g ai/ha, 0 to 100 scale, 0 no effect, 100 complete control, read-out: Plant response rating Crabgrass, Large): 80%
- plant injury at 125 g/ha (corn [2]; Zea mays, pre-emergence, 240 h, 125 g ai/ha, 0 to 100 scale where 0 is no effect and 100 is complete control, read-out: Corn plant response rating): 0%
- plant injury at 500 g/ha (corn [2]; Zea mays, pre-emergence, 240 h, 500 g ai/ha, 0 to 100 scale, 0 no effect, 100 complete control, approx. 10 days, read-out: Corn plant response rating): 20%
- pest or weed control at 125 g/ha (lambsquarters; 125 g ai/ha, postemergence, read-out: Plant response rating (0 to 100), Lambsquarters): 75%
- pest or weed control at 250 g/ha (lambsquarters; 250 g ai/ha, postemergence, read-out: Plant response rating (0 to 100), Lambsquarters): 98%
- pest or weed control at 31 g/ha (lambsquarters; Postemergence, 31 g ai/ha, scale 0 to 100 (0 no effect, 100 complete control), 13 to 15 days, read-out: Plant response rating, Lambsquarters): 55%
- pest or weed control at 62 g/ha (lambsquarters; Postemergence, 62 g ai/ha, scale 0 to 100 (0 no effect, 100 complete control), read-out: Plant response rating, Lambsquarters): 55%
- pest or weed control at 250 g/ha (sedge, umbrella; Cyperus difformis, read-out: Plant response rating, Sedge, Umbrella): 50%
- pest or weed control at 125 g/ha (giant foxtail; 125 g ai/ha, postemergence, read-out: Plant response rating (0 to 100), Foxtail, Giant): 5%
- pest or weed control at 250 g/ha (giant foxtail; 250 g ai/ha, postemergence, read-out: Plant response rating (0 to 100), Foxtail, Giant): 5%
- pest or weed control at 31 g/ha (giant foxtail; Postemergence, 31 g ai/ha, scale 0 to 100 (0 no effect, 100 complete control), 13 to 15 days, read-out: Plant response rating, Foxtail, Giant): 0%
- pest or weed control at 62 g/ha (giant foxtail; Postemergence, 62 g ai/ha, scale 0 to 100 (0 no effect, 100 complete control), read-out: Plant response rating, Foxtail, Giant): 0%
- plant injury at 125 g/ha (wheat, winter; 125 g ai/ha, postemergence, read-out: Plant response rating (0 to 100), Wheat): 5%
- plant injury at 250 g/ha (wheat, winter; 250 g ai/ha, postemergence, read-out: Plant response rating (0 to 100), Wheat): 10%
- plant injury at 31 g/ha (wheat, winter; Postemergence, 31 g ai/ha, scale 0 to 100 (0 no effect, 100 complete control), 13 to 15 days, read-out: Plant response rating, Wheat): 5%
- plant injury at 62 g/ha (wheat, winter; Postemergence, 62 g ai/ha, scale 0 to 100 (0 no effect, 100 complete control), read-out: Plant response rating, Wheat): 5%
- pest or weed control at 125 g/ha (large (Lg) crabgrass [3]; 125 g ai/ha, postemergence, read-out: Plant response rating (0 to 100), Crabgrass, Large): 5%
- pest or weed control at 250 g/ha (large (Lg) crabgrass [3]; 250 g ai/ha, postemergence, read-out: Plant response rating (0 to 100), Crabgrass, Large): 35%
- pest or weed control at 31 g/ha (large (Lg) crabgrass [3]; Postemergence, 31 g ai/ha, scale 0 to 100 (0 no effect, 100 complete control), 13 to 15 days, read-out: Plant response rating, Crabgrass, Large): 5%
- pest or weed control at 62 g/ha (large (Lg) crabgrass [3]; Postemergence, 62 g ai/ha, scale 0 to 100 (0 no effect, 100 complete control), read-out: Plant response rating, Crabgrass, Large): 5%
- pest or weed control at 250 g/ha (barnyardgrass; Echinochloa crus-galli, read-out: Plant response rating, Barnyardgrass): 0%
- plant injury at 125 g/ha (wheat; Triticum aestivum, pre-emergence, 240 h, 125 g ai/ha, 0 to 100 scale where 0 is no effect and 100 is complete control, read-out: Wheat plant response rating): 0%
- plant injury at 500 g/ha (wheat; Triticum aestivum, pre-emergence, 240 h, 500 g ai/ha, 0 to 100 scale, 0 no effect, 100 complete control, approx. 10 days, read-out: Wheat plant response rating): 20%
- plant injury at 125 g/ha (corn [4]; 125 g ai/ha, postemergence, read-out: Plant response rating (0 to 100), Corn): 5%
- plant injury at 250 g/ha (corn [4]; 250 g ai/ha, postemergence, read-out: Plant response rating (0 to 100), Corn): 20%
- Corn plant response rating (crop injury, 0 = no effect, 100 = complete kill) at 31 g/ha (corn [4]; Postemergence, 31 g ai/ha, scale 0 to 100 (0 no effect, 100 complete control), 13 to 15 days): 5%
- Corn plant response rating (crop injury, 0 = no effect, 100 = complete kill) at 62 g/ha (corn [4]; Postemergence, 62 g ai/ha, scale 0 to 100 (0 no effect, 100 complete control)): 5%
- pest or weed control at 125 g/ha (chickweed; 125 g ai/ha, postemergence, read-out: Plant response rating (0 to 100), Chickweed): 35%
- pest or weed control at 250 g/ha (chickweed; 250 g ai/ha, postemergence, read-out: Plant response rating (0 to 100), Chickweed): 98%
- pest or weed control at 31 g/ha (chickweed; Postemergence, 31 g ai/ha, scale 0 to 100 (0 no effect, 100 complete control), 13 to 15 days, read-out: Plant response rating, Chickweed): 5%
- pest or weed control at 62 g/ha (chickweed; Postemergence, 62 g ai/ha, scale 0 to 100 (0 no effect, 100 complete control), read-out: Plant response rating, Chickweed): 30%

Structure (SMILES): Fc1cccc(Oc2ncc(Cl)cn2)c1-n1cc(I)cn1 [Compound 179]
- Crabgrass, Large plant response rating (large (Lg) crabgrass [1]; [6]): 90
- Plant response rating, Crabgrass, Large (large (Lg) crabgrass [1]; [7]): 100
- Plant response rating, Corn (corn [2]; [6]): 0
- Corn plant response rating (corn [2]; [7]): 10
- Plant response rating, Sedge, Umbrella (sedge, umbrella): 85
- Crabgrass, Large plant response rating (large (Lg) crabgrass [5]; [8]): 55
- Crabgrass, Large plant response rating (large (Lg) crabgrass [5]; [9]): 98
- Crabgrass, Large plant response rating (large (Lg) crabgrass [5]; [10]): 100
- Plant response rating, Crabgrass, Large (large (Lg) crabgrass [5]): 90
- Plant response rating, Barnyardgrass (barnyardgrass): 20
- Pigweed plant response rating (pigweed; [8]): 100
- Pigweed plant response rating (pigweed; [9]): 100
- Pigweed plant response rating (pigweed; [10]): 100
- Wheat plant response rating (0 to 100 scale) (wheat; 125 g ai/ha): 0
- Wheat plant response rating (wheat; [7]): 30

Structure (SMILES): Fc1cnc(Oc2cccc(C(F)F)c2-n2cc(Br)cn2)nc1 [Compound 112]
- Plant response rating, Crabgrass, Large (large (Lg) crabgrass [1]; [6]): 60
- Plant response rating, Crabgrass, Large (large (Lg) crabgrass [1]; [7]): 100
- Plant response rating, Corn (corn [2]; [6]): 0
- Corn plant response rating (corn [2]; 500 g ai/ha, 0 to 100 scale, 0 no effect, 100 complete control, approx. 10 days): 50
- Plant response rating, Sedge, Umbrella (sedge, umbrella): 85
- Crabgrass, Large plant response rating (large (Lg) crabgrass [5]; [8]): 35
- Crabgrass, Large plant response rating (large (Lg) crabgrass [5]; [9]): 100
- Crabgrass, Large plant response rating (large (Lg) crabgrass [5]; [10]): 100
- Plant response rating, Crabgrass, Large (large (Lg) crabgrass [5]): 100
- Plant response rating, Barnyardgrass (barnyardgrass): 0
- Pigweed plant response rating (pigweed; [8]): 100
- Pigweed plant response rating (pigweed; [9]): 100
- Pigweed plant response rating (pigweed; [10]): 100
- Plant response rating, Pigweed (pigweed; Preemergence, 31 g ai/ha, scale 0 to 100, 0 no effect, 100 complete control): 100
- Plant response rating, Wheat (wheat; [6]): 0
